From US11472806B2, “Substituted heterocyclic compounds as allosteric modulators of group II metabotropic glutamate receptors” (Domain Therapeutics, priority 2017, dated 2022)
Where a name gives a salt, the structure may show the parent alone.

Biological target: T1, human mGluR3 (hmGluR3) (Homo sapiens, UniProt Q14832)
T1 construct: expressed in transfected cells; host or cells: HEK-293 cells, transient co-transfection by electroporation
Test: Human mGluR3 positive allosteric modulator evaluation using Ca++ functional assay
Assay type: cell-based
Conditions: hmGluR3 transiently over-expressed in HEK-293 cells; cells stimulated by an EC50 glutamate concentration; intracellular Ca2+ (Fluo4AM, FLIPR Tetra)
Procedure: Example 89: Human mGluR3 Positive Allosteric Modulator Evaluation Using Ca++ Functional Assay
Compounds of the present invention were tested successively for their agonist and positive allosteric modulator activities on human mGluR3 (hmGluR3) transiently over-expressed in HEK-293 cells. Compounds exert agonist activity if they are able to activate hmGluR3 by themselves, i.e., in absence of the endogenous agonist glutamate; and they exert positive allosteric modulator activity if they increase the action of the endogenous agonist glutamate.
Cell Culture and Transfection:
HEK-293 cells were maintained in Modified Eagle's Medium supplemented with 10% Foetal Calf Serum, 1% Penicillin/Streptomycin and 1% non-essential amino acids at 37° C./5% CO2. Cells were co-transfected by electroporation with four DNA plasmids encoding hmGluR3, a chimeric G protein allowing redirection of the activation signal toward intracellular calcium pathway, and two glutamate transporters so as to decrease extracellular glutamate levels and avoid receptor desensitization (Brabet I et al., Neuropharmacology 37(8), 1043-51, 1998). After transfection, cells were seeded in 75 cm^2 culture flasks, and cultured for 24 h.
Calcium Assa EC50 determination:
Receptor activity was detected by changes in intracellular calcium measured using the fluorescent Ca^2+ sensitive dye, Fluo4AM (Molecular Probes).
The day of the assay, medium was aspirated and replaced during 3 hrs by freshly prepared buffer B (HBSS 1×, Hepes 20 mM, MgSO4-7H2O 1 mM, Na2CO3 3.3 mM, CaCl2-2H2O 1.3 mM, 0.5% BSA, Probenecid 2.5 mM). Then, cells were loaded at 37° C./5% CO2 for 1.5 hrs with buffer B containing 1 μM Fluo4AM, 0.1 mg/mL Pluronic Acid, 7 μg/mL Glutamate Pyruvate Transaminase and 2 mM sodium pyruvate. Afterwards cells were washed with buffer B. Cells were then detached from the 75 cm^2 culture flasks with Accutase® (5 min incubation at 37° C.), centrifuged (5 min at 840 rpm), resuspended in buffer B and finally seeded at a density of 30,000 cells/well in black-walled clear-bottom 384-well plates. Addition of compounds on cells and intracellular Ca^2+ measurements (excitation 485 nm, emission 525 nm) were performed by the fluorescence microplate reader FLIPR Tetra (Molecular Devices).
Agonist and positive allosteric modulator activities of compounds were consecutively evaluated on the same cells plate. Agonist activity was first tested during 10 min with the addition of compound alone on the cells. Then, the cells were stimulated by an EC50 glutamate concentration and fluorescence was recorded for additional 3 min. EC50 glutamate concentration is the concentration giving 50% of the maximal glutamate response. Agonist and/or positive allosteric modulator activity(ies) were evaluated in comparison to basal signal or signal evoked by EC50 glutamate concentration alone, respectively.
For potency determination, a dose-response test was performed using 20 concentrations of each compound of the invention. Dose-response curves were fitted using the sigmoïdal dose-response (variable slope) analysis in XLfit Scientific Curve Fitting for Excel (IDBS). EC50 of agonist/EC50 of positive allosteric modulator activity(ies) were calculated. Dose-response experiments were all performed in duplicate, two times independently.

T1 sequence (Q14832 23-879): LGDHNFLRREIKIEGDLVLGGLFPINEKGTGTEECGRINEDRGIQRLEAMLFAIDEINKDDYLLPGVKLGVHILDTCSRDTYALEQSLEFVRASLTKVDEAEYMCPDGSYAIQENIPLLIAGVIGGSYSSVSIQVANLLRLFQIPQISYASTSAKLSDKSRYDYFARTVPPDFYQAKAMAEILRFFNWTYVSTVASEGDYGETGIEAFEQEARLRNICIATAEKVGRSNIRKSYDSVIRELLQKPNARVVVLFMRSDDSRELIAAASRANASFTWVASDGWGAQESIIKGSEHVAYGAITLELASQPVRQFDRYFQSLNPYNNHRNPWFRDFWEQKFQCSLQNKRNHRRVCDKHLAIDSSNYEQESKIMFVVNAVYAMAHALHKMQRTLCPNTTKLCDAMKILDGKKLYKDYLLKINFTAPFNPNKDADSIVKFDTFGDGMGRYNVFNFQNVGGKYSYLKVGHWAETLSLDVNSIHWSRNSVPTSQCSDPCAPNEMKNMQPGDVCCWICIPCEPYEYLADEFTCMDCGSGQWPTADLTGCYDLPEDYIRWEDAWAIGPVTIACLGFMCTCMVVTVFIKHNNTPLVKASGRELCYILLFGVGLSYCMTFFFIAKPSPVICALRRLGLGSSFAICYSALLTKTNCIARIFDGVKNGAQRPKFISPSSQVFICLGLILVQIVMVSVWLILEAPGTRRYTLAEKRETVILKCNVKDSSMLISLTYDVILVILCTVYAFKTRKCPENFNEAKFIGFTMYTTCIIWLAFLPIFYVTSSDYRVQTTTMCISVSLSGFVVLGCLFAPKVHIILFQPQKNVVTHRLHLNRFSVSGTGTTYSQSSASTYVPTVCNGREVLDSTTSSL

| Structure (SMILES) | EC50 |
| --- | --- |
| Cc1ncccc1-c1cc2c(cn1)C1(CC1)N(C)C(=O)c1cccn1-2 [Example 3, 2′-(2-Methyl-pyridin-3-yl)-6′-methylspiro[cyclopropane-1,5′-pyrido[3,4-f]pyrrolo[1,2-a][1,4]diazepin]-7′(6 ^1H)-one] | 1000 to 10000 nM |
| Cc1ncccc1-c1ccc2c(c1)-c1ccc(F)nc1C(=O)N(C)C2 [Example 30, 3-Fluoro-6-methyl-10-(2-methyl-pyridin-3-yl)-6,7-dihydro-4,6-diaza-dibenzo[a, c]cyclohepten-5-one] | 1000 to 10000 nM |
| CN1Cc2ccc(-c3ccc(F)cn3)cc2-c2cccnc2C1=O [Example 28, 10-(5-Fluoro-pyridin-2-yl)-6-methyl-6,7-dihydro-4,6-diaza-dibenzo[a, c]cyclohepten-5-one] | 100 to 1000 nM |
| CN1Cc2ccc(-c3cccc(C#N)c3)cc2-c2cccnc2C1=O [Example 25, 3-(6-Methyl-5-oxo-6,7-dihydro-5H-4,6-diaza-dibenzo[a,c]cyclohepten-10-yl)-benzonitrile] | 100 to 1000 nM |
| Cc1ncccc1-c1ccc2c(c1)-c1cccnc1C(=O)N(C)C2 [Example 26, 6-Methyl-10-(2-methyl-pyridin-3-yl)-6,7-dihydro-4,6-diaza-dibenzo[a, c]cyclohepten-5-one] | 100 to 1000 nM |
| CN1Cc2ccc(-c3ccc(F)nc3)cc2-c2cccnc2C1=O [Example 27, 10-(6-Fluoro-pyridin-3-yl)-6-methyl-6,7-dihydro-4,6-diaza-dibenzo[a, c]cyclohepten-5-one] | 100 to 1000 nM |
| Cc1ncccc1-c1cnc2c(n1)-n1cccc1C(=O)N(C)C2 [Example 7, 5-Methyl-9-(2-methyl-pyridin-3-yl)-5,6-dihydro-5,7,10,10b-tetraaza-benzo[e]azulen-4-one, dihydrochloride] | 1000 to 10000 nM |
| Cc1ncccc1-c1ccc2c(c1)-c1ccc(Cl)cc1C(=O)N(C)C21CC1 [Example 22, 3-Chloro-10-(2-methyl-pyridin-3-yl)-6-methyl-6,7-dihydro-spiro[dibenzo[c, e]azepine-7,1′-cyclopropan]-5-one] | 1000 to 10000 nM |
| CN1Cc2ncc(-c3ccc4nccn4c3)cc2-n2cccc2C1=O [Example 12, 9-Imidazo[1,2-a]pyridin-6-yl-5-methyl-5,6-dihydro-5,7,10b-triaza-benzo[e]azulen-4-one] | > 10000 nM |
| CN1Cc2ncc(-c3cccc(C#N)c3)cc2-n2cccc2C1=O [Example 11, 3-(5-Methyl-4-oxo-5,6-dihydro-4H-5,7,1 b-triaza-benzo[e]azulen-9-yl)-benzonitrile] | > 10000 nM |
| Cc1ncccc1-c1ccc2c(c1)-n1cccc1C(=O)N(C)C21CCC1 [Example 17, 9-(2-Methyl-pyridin-3-yl)-5-methyl-5,6-dihydro-spiro[benzo[f]pyrrolo[, 2-a][1,4]diazepine-6,1′-cyclobutan]-4-one] | 100 to 1000 nM |
| Cc1ncccc1-c1ccc2c(c1)-c1ccc(-c3ccnn3C)cc1C(=O)N(C)C21CC1 [Example 23, 3-(2-Methyl-2H-pyrazol-3-yl)-10-(2-methyl-pyridin-3-yl)-6-methyl-6,7-dihydro-spiro[dibenzo[c, e]azepine-7,1′-cyclopropan]-5-one] | 100 to 1000 nM |
| Cc1ncccc1-c1ccc2c(c1)-c1ccccc1C(=O)N(C)C21CC1 [Example 21, 10-(2-Methyl-pyridin-3-yl)-6-methyl-6,7-dihydro-spiro[dibenzo[c,e]azepine-7,1′-cyclopropan]-5-one, hydrochloride] | 100 to 1000 nM |

More lines, now with the values ahead:

| EC50 | Structure (SMILES) |
| --- | --- |
| 1000 to 10000 nM | COCCn1cc2c(n1)C(=O)N(C)Cc1ccc(-c3cccnc3C)cc1-2 [Example 72, 2-(2-Methoxy-ethyl)-5-methyl-9-(2-methyl-pyridin-3-yl)-5,6-dihydro-2H-2,3,5-triaza-benzo[e]azulen-4-one] |
| 1000 to 10000 nM | Cc1ncccc1-c1ccc2c(c1)-c1cc(F)cnc1C(=O)N(C)C2 [Example 46, 2-Fluoro-6-methyl-10-(2-methyl-pyridin-3-yl)-6,7-dihydro-4,6-diaza-dibenzo[a, c]cyclohepten-5-one] |
| 100 to 1000 nM | COc1ccc2c(n1)C(=O)N(C)C1(CC1)c1ccc(Cl)cc1-2 [Example 52, 10-chloro-3-methoxy-6-methylspiro[benzo[c]pyrido[3,2-e]azepine-7,1′-cyclopropan]-5(6H)-one] |
| 1000 to 10000 nM | CN1Cc2ccc(-c3ccc(F)nc3)cc2-c2ccc(F)nc2C1=O [Example 31, 3-Fluoro-10-(6-fluoro-pyridin-3-yl)-6-methyl-6,7-dihydro-4,6-diaza-dibenzo[a, c]cyclohepten-5-one] |
| 1000 to 10000 nM | Cc1ncccc1-c1ccc2c(c1)-c1c[nH]nc1C(=O)N(C)C2 [Example 57, 5-Methyl-9-(2-methyl-pyridin-3-yl)-5,6-dihydro-2H-2,3,5-triaza-benzo[e]azulen-4-one] |
| 100 to 1000 nM | Cc1ncccc1-c1ccc2c(c1)-c1cc[nH]c1C(=O)N(C)C2 [Example 59, 5-Methyl-9-(2-methyl-pyridin-3-yl)-5,6-dihydro-3H-3,5-diaza-benzo[e]azulen-4-one] |
| 100 to 1000 nM | Cc1ccc2c(n1)C(=O)N(C)Cc1ccc(-c3cccnc3C)cc1-2 [Example 41, 3,6-Dimethyl-10-(2-methyl-pyridin-3-yl)-6,7-dihydro-4,6-diaza-dibenzo[a, c]cyclohepten-5-one] |
| 100 to 1000 nM | COc1ccc2c(n1)C(=O)N(C)Cc1ccc(-c3ccc(F)cn3)cc1-2 [Example 34, 10-(5-Fluoro-pyridin-2-yl)-3-methoxy-6-methyl-6,7-dihydro-4,6-diaza-dibenzo[a, c]cyclohepten-5-one] |
| 1000 to 10000 nM | Cc1ncccc1-c1ccc2c(c1)-c1cn(C)nc1C(=O)N(C)C2 [Example 68, 2,5-Dimethyl-9-(2-methyl-pyridin-3-yl)-5,6-dihydro-2H-2,3,5-triaza-benzo[e]azulen-4-one] |
| 100 to 1000 nM | Cc1ccc2c(n1)C(=O)N(C)Cc1ccc(-c3ccc(F)cn3)cc1-2 [Example 40, 10-(5-Fluoro-pyridin-2-yl)-3,6-dimethyl-6,7-dihydro-4,6-diaza-dibenzo[a, c]cyclohepten-5-one] |
| 100 to 1000 nM | COc1ccc2c(n1)C(=O)N(C)Cc1ccc(-c3cccnc3C)cc1-2 [Example 36, 3-Methoxy-6-methyl-10-(2-methyl-pyridin-3-yl)-6,7-dihydro-4,6-diaza-dibenzo[a, c]cyclohepten-5-one] |
| 1000 to 10000 nM | CN1Cc2ccc(-c3ccc(F)cn3)cc2-c2ccc(F)nc2C1=O [Example 32, 3-Fluoro-10-(5-fluoro-pyridin-2-yl)-6-methyl-6,7-dihydro-4,6-diaza-dibenzo[a, c]cyclohepten-5-one] |
| 100 to 1000 nM | COCn1cc2c(n1)C(=O)N(C)Cc1ccc(-c3cccnc3C)cc1-2 [Example 65, 2-Methoxymethyl-5-methyl-9-(2-methyl-pyridin-3-yl)-5,6-dihydro-2H-2,3,5-triaza-benzo[e]azulen-4-one] |
| 100 to 1000 nM | Cc1ncccc1-c1ccc2c(c1)-c1ccsc1C(=O)N(C)C2 [Example 55, 5-Methyl-9-(2-methyl-pyridin-3-yl)-5,6-dihydro-3-thia-5-aza-benzo[e]azulen-4-one] |
| 100 to 1000 nM | Cc1cnc2c(c1)-c1cc(-c3ccc(F)nc3)ccc1CN(C)C2=O [Example 44, 10-(6-Fluoro-pyridin-3-yl)-2,6-dimethyl-6,7-dihydro-4,6-diaza-dibenzo[a, c]cyclohepten-5-one] |
| 100 to 1000 nM | COc1cnc2c(c1)-c1cc(-c3cccnc3C)ccc1CN(C)C2=O [Example 48, 2-Methoxy-6-methyl-10-(2-methyl-pyridin-3-yl)-6,7-dihydro-4,6-diaza-dibenzo[a, c]cyclohepten-5-one] |
| 1000 to 10000 nM | Cc1cnc2c(c1)-c1cc(-c3cccnc3C)ccc1CN(C)C2=O [Example 43, 2,6-Dimethyl-10-(2-methyl-pyridin-3-yl)-6,7-dihydro-4,6-diaza-dibenzo[a, c]cyclohepten-5-one] |
| 100 to 1000 nM | Cc1ccc2c(n1)C(=O)N(C)Cc1ccc(-c3ccc(F)nc3)cc1-2 [Example 39, 10-(6-Fluoro-pyridin-3-yl)-3,6-dimethyl-6,7-dihydro-4,6-diaza-dibenzo[a, c]cyclohepten-5-one] |
